# Patent US10308617B2, “Triazole benzamide derivatives and the compositions and methods of treatment regarding the same” (An2H Discovery Limited, priority 2016, dated 2019)
# Target: T1, Parkin ligase (Homo sapiens, UniProt O60260)
# T1 sequence (O60260 1-465): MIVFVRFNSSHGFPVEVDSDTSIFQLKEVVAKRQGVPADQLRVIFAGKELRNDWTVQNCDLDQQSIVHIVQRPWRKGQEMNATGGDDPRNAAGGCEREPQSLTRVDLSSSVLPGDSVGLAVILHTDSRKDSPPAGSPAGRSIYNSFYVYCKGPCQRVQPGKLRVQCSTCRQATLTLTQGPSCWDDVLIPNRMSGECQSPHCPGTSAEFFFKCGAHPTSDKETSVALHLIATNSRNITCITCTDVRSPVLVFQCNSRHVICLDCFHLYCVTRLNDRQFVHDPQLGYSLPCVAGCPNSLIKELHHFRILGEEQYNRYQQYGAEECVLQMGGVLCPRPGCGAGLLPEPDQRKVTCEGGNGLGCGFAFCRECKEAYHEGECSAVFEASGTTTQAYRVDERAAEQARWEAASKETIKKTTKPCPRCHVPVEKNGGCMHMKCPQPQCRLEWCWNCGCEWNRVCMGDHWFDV
# Assay: Activity-Based Probe Assay using an Ubiquitin vinyl sulfone probe (TR-FRET)
# Assay type: biochemical
# Settings: Parkin activation, HA-Ub-VS probe, heat activated Parkin; read-out: Probe Assay EC50 (μM) [Example 2]
# Experimental: An Ubiquitin vinyl sulfone probe can be used that irreversibly binds to the active site cysteine of Parkin ligase. Covalent attachment of the probe to the Parkin can be monitored by TR-FRET. Candidate activator compounds can be identified by increasing the activity of Parkin ligase due to an increase in TR-FRET signal. Screening for activating compounds can be distinguished from the controls as follows: • 100% activation signal=Heat activated Parkin+100 nM control activator in DMSO. • 0% activation signal=Heat activated Parkin+DMSO only. • Parkin activators can be identified by an increase of the 0% activation signal TR-FRET signal.
# • Assay Plate: White 384 well plate (Corning 3572) • Enzyme: Parkin-His tagged 203 μM (10.5 mg/ml) • Probe: Ubiquitin vinyl-sulfone (HA-Ub-VS Boston Biochem U-212) • DMSO: DMSO (Sigma cat # D4540-100ML) • Reaction Buffer: 50 mM HEPES (pH 8.5), 150 mM NaCl, 0.01% Tween 20, 0.1% BSA • Detection Buffer: 50 mM HEPES (pH 8.5), 150 mM NaCl, 0.01% Tween 20, 0.1% BSA, 800 mM KF • Detection Reagent A: 2.6 nM Anti-6HIS-Eu cryptate and 40 nM Anti-HA-XL665 in detection buffer • Eu cryptate: Anti-6HIS-Eu cryptate (CisBio 61HISKLA) • XL665: Anti-HA-XL665 (CisBio 610HAXLA) Enzyme Reaction (15 min pre incubation Parkin with activator only) • Parkin: 40 nM • HA-Ub-VS Probe: 70 nM • Activator/DMSO: 2× Activator/2% DMSO • Reaction time: 60 minutes • Temperature: 22° C. • Total volume: 10 μl reaction Detection Reaction • Take 10 μl of Enzyme Reaction above and add 10 μl detection Reagent A under the following conditions: • Reaction time: 60 minutes • Temperature: 22° C. • Total volume: 20 μl
# Assay procedure (Using HP D-300 compound dispenser and Bravo for the operation): • 1) Heat activate Parkin in reaction buffer (500 μl/1.5 ml tube: Eppendorf Thermomixer 5 minutes, 400 rpm at 58° C. and put on ice until needed). • 2) Load assay plate wells with 4.8 μl 84.5 nM Parkin in reaction buffer by use of Bravo. • 3) Deliver 0.2 μl 200× activator candidates in DMSO by use of HP D-300 compound dispenser. Highest 200× concentration=[…] and then twofold dilutions. • 4) Spin 1000 rpm, 2 minutes, at room temp. • 5) Incubate plate for 15 minutes at room temp. • 6) Add 5 μl 140 nM HA-Ub-VS Probe in reaction buffer by use of Bravo. • 7) Spin 1000 rpm, 2 minutes, at room temp. • 8) Incubate plate for 60 minutes at room temp. • 9) Add 10 μl 2.6 nM Anti-6HIS-Eu cryptate and 40 nM Anti-HA-XL665 in detection buffer. • 10) Spin 1000 rpm, 2 minutes, at room temp. • 11) Incubate plate for 60 minutes at room temp. • 12) Read plates on Perkin Elmer Envision instrument with the following parameters: • LANCE dual laser protocol loaded into the Envision® software • Top Mirror: LANCE/DELFIA Duel/Bias (Bar code 446) • Emission Filter: APC 665 EM (Bar code 205) • 2nd Emission Filter: Europium 615 EM (Bar code 203) • Read 655 nm (channel 1) and 615 nm (channel 2) wavelengths on Envision®
# Data Analysis: The Data can be read in CSV files. There are two tables in those CSV files, which are the values of 655 nm (channel 1) and 615 nm (channel 2) wavelengths respectively. The data is converted to an HTRF Ratio=(Channel 1/Channel 2)*10,000
# The average of all the 0 uM controls (DMSO only)=BKGD (Background—0% activation). Subtract BKGD from each HTRF Ratio value=HTRF-BKGD. The average of all the […] 100 nM control activator in DMSO controls=Max (100% activation). The following equation is then used to calculate % Activation for each well/candidate as follows: % Activation=(HTRF-BKGD/Max)*100.
# Graphpad Prisim was used with Transform X values: X=Log(X) and nonlinear regression (dose-response-stimulation): Log(agonist) vs Response—variable slope (four parameters) with constrains set to Bottom=0 and Top=100.
# The Activity-Based Probe Assay was performed with various compounds in Tables 1-3.
row,EC50 [µM],SMILES
1,> 100,Cc1ccccc1C(=O)Nc1nc(NC(=O)c2ccncc2)n(-c2ccccc2)n1 [Compound M3]
2,> 100,Cc1ccccc1C(=O)Nc1nc(NC(=O)c2ccccn2)n(-c2ccccc2)n1 [Compound A3]
3,> 100,Cc1ccccc1C(=O)Nc1nc(NC(=O)c2ccccc2C)n(-c2ccncc2)n1 [Compound B3]
4,37,Cc1ccccc1C(=O)Nc1nc(NC(=O)c2ccccc2C)n(C2CCCCC2)n1 [Compound J3]
5,9,Cc1ccccc1C(=O)Nc1nc(NC(=O)c2ccccn2)n(-c2ccccc2)n1 [Compound P3]
6,17,COc1ccccc1C(=O)Nc1nc(NC(=O)c2ccccc2C)nn1-c1ccccc1 [Compound K3]
7,> 100,Cc1ccccc1C(=O)Nc1nc(NC(=O)c2ccccc2F)n(-c2ccccc2)n1 [Compound E3]
8,> 100,Cc1ccccc1C(=O)Nc1nc(N)n(-c2ccccc2)n1 [Compound N3]
9,> 100,Cc1ccccc1C(=O)Nc1nc(NCCc2ccccc2)n(-c2ccccc2)n1 [Compound L3]
10,> 100,Cc1ccccc1C(=O)Nc1nc(NC(=O)c2ccccc2C)n(CC(C)C)n1 [Compound I3]
11,> 100,Cc1cccc(C(=O)Nc2nc(NC(=O)c3cccc(C)c3)n(-c3ccccc3)n2)c1 [Compound F3]
12,> 100,Cc1ccccc1C(=O)Nc1nc(NC(=O)c2ccccc2C)n(-c2cccnc2)n1 [Compound Y2]
13,> 100,Cc1ccccc1C(=O)Nc1nc(NC(=O)c2ccccc2C)n(C(C)(C)C)n1 [Compound D3]
14,74,Cc1ccccc1C(=O)Nc1nc(-c2ccncn2)nn1-c1ccccc1 [Compound G3]
15,> 100,Cc1ccccc1C(=O)Nc1nc(NC(=O)c2ccccc2C)n(-c2ccc(F)cc2)n1 [Compound O3]
